# Columns and labels:
# [1] = Drug metabolism in Sprague-Dawley rat liver microsomes assessed as CYP450-mediated catecholization per mg of protein after 10 to 30 mins by HPLC analysis in presence of NADPH; assay type: ADME
# [2] = system: CYP450; assay: Drug metabolism in Sprague-Dawley rat liver microsomes assessed as CYP450-mediated catecholization after 10 to 30 mins by HPLC analysis in presence of NADPH; assay type: ADME
# [3] = target: T1, Cytochrome P450 2C19 (Homo sapiens, UniProt P33261); assay: Activity of recombinant human CYP2C19 expressed in Saccharomyces cerevisiae AH22 cells assessed as enzyme-mediated episesamin dicatechol formation after 15 mins by HPLC analysis in presence of NADPH; assay type: ADME, cell-based; details: ah22, 0.25 h
# [4] = Drug metabolism in human liver microsomes assessed as UGT-mediated glucuronidation per mg of protein after 10 to 30 mins by HPLC analysis in presence of UDP-GlcUA; assay type: ADME
# [5] = target: T2, Cytochrome P450 2C9 (Homo sapiens, UniProt P11712); assay: Activity of recombinant human CYP2C9 expressed in Saccharomyces cerevisiae AH22 cells assessed as enzyme-mediated episesamin dicatechol formation after 15 mins by HPLC analysis in presence of NADPH; assay type: ADME, cell-based; details: ah22, 0.25 h
# [6] = system: Liver microsome; assay: Drug level in human liver microsomes treated with episesamin at 2 to 75 uM after 15 mins by HPLC analysis in presence of NADPH; assay type: ADME; details: 0.25 h
# [7] = target: T3, UDP-glucuronosyltransferase 2B7 (Homo sapiens, UniProt P16662); assay: Activity of recombinant human UGT2B7 expressed in baculovirus infected insect cells assessed as enzyme-mediated glucuronidation at 1 to 30 uM after 10 to 30 mins by HPLC analysis in presence of UDP-GlcUA; assay type: ADME
# T3 sequence (P16662 whole entry): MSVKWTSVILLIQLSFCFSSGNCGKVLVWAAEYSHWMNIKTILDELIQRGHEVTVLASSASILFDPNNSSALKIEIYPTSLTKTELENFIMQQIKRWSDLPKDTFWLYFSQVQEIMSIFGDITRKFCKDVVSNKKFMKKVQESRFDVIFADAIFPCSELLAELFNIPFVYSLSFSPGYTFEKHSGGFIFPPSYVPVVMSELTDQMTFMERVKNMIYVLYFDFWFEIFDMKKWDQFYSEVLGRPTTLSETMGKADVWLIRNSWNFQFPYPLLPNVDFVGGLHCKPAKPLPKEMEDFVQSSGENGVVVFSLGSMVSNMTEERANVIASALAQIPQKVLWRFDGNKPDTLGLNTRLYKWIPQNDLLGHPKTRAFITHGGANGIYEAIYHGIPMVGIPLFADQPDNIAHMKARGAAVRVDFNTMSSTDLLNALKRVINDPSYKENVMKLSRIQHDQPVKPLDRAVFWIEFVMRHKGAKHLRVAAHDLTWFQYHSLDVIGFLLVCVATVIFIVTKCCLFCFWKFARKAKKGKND
# [8] = Drug metabolism in Sprague-Dawley rat liver microsomes assessed as UGT-mediated glucuronidation per mg of protein after 10 to 30 mins by HPLC analysis in presence of UDP-GlcUA; assay type: ADME
# [9] = target: T4, Cytochrome P450 1A2 (Homo sapiens, UniProt P05177); assay: Activity of recombinant human CYP1A2 expressed in Saccharomyces cerevisiae AH22 cells assessed as enzyme-mediated episesamin dicatechol formation after 15 mins by HPLC analysis in presence of NADPH; assay type: ADME, cell-based; details: ah22, 0.25 h
# T4 sequence (P05177 whole entry): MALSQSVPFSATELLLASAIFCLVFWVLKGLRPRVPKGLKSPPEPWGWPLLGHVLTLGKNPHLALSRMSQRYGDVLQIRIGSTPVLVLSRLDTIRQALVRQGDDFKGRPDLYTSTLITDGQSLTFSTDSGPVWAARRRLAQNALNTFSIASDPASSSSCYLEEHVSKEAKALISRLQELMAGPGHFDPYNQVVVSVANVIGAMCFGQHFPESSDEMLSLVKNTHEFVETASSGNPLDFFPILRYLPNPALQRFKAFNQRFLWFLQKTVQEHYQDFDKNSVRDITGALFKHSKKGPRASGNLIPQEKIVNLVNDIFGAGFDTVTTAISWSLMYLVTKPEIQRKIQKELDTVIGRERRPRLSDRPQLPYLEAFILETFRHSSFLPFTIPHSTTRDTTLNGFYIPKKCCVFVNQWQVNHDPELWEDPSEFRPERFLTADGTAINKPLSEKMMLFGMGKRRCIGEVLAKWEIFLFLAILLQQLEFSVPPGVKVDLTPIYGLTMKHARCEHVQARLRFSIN
# [10] = target: T1, Cytochrome P450 2C19; assay: Activity of recombinant human CYP2C19 expressed in Saccharomyces cerevisiae AH22 cells assessed as enzyme-mediated compound formation treated with episesamin at 2 to 75 uM after 15 mins by HPLC analysis in presence of NADPH; assay type: ADME, cell-based; details: ah22, 0.25 h
# [11] = system: UGT; assay: Drug metabolism in Sprague-Dawley rat liver microsomes assessed as UGT-mediated glucuronidation after 10 to 30 mins by HPLC analysis in presence of UDP-GlcUA; assay type: ADME
# [12] = system: CYP450; assay: Drug metabolism in human liver microsomes assessed as CYP450-mediated catecholization after 10 to 30 mins by HPLC analysis in presence of NADPH; assay type: ADME
# [13] = Drug metabolism in human liver microsomes assessed as CYP450-mediated catecholization per mg of protein after 10 to 30 mins by HPLC analysis in presence of NADPH; assay type: ADME
# [14] = system: UGT; assay: Drug metabolism in human liver microsomes assessed as UGT-mediated glucuronidation after 10 to 30 mins by HPLC analysis in presence of UDP-GlcUA; assay type: ADME
# [15] = system: Liver microsome; assay: Drug level in human liver microsomes treated with episesamin at 5 uM after 30 mins by HPLC analysis in presence of NADPH; assay type: ADME; details: 0.5 h
# [16] = target: T4, Cytochrome P450 1A2; assay: Activity of recombinant human CYP1A2 expressed in Saccharomyces cerevisiae AH22 cells assessed as enzyme-mediated compound formation treated with episesamin at 2 to 75 uM after 15 mins by HPLC analysis in presence of NADPH; assay type: ADME, cell-based; details: ah22, 0.25 h
# [17] = target: T2, Cytochrome P450 2C9; assay: Activity of recombinant human CYP2C9 expressed in Saccharomyces cerevisiae AH22 cells assessed as enzyme-mediated compound formation treated with episesamin at 2 to 75 uM after 15 mins by HPLC analysis in presence of NADPH; assay type: ADME, cell-based; details: ah22, 0.25 h
# [18] = target: T2, Cytochrome P450 2C9; assay: Activity of recombinant human CYP2C9 expressed in Saccharomyces cerevisiae AH22 cells assessed as enzyme-mediated compound formation treated with (S)-episesamin monocatechol at 1 to 30 uM after 15 mins by HPLC analysis in presence of NADPH; assay type: ADME, cell-based; details: ah22, 0.25 h
# [19] = target: T4, Cytochrome P450 1A2; assay: Activity of recombinant human CYP1A2 expressed in Saccharomyces cerevisiae AH22 cells assessed as enzyme-mediated compound formation treated with (R)-episesamin monocatechol at 1 to 30 uM after 15 mins by HPLC analysis in presence of NADPH; assay type: ADME, cell-based; details: ah22, 0.25 h
# [20] = target: T2, Cytochrome P450 2C9; assay: Activity of recombinant human CYP2C9 expressed in Saccharomyces cerevisiae AH22 cells assessed as enzyme-mediated compound formation treated with (R)-episesamin monocatechol at 1 to 30 uM after 15 mins by HPLC analysis in presence of NADPH; assay type: ADME, cell-based; details: ah22, 0.25 h
# [21] = target: T4, Cytochrome P450 1A2; assay: Activity of recombinant human CYP1A2 expressed in Saccharomyces cerevisiae AH22 cells assessed as enzyme-mediated compound formation treated with (S)-episesamin monocatechol at 1 to 30 uM after 15 mins by HPLC analysis in presence of NADPH; assay type: ADME, cell-based; details: ah22, 0.25 h
# [22] = target: T1, Cytochrome P450 2C19; assay: Activity of recombinant human CYP2C19 expressed in Saccharomyces cerevisiae AH22 cells assessed as enzyme-mediated compound formation treated with sesamin at 2 to 20 uM after 15 mins by HPLC analysis in presence of NADPH; assay type: ADME, cell-based; details: ah22, 0.25 h
# T2 sequence (P11712 whole entry): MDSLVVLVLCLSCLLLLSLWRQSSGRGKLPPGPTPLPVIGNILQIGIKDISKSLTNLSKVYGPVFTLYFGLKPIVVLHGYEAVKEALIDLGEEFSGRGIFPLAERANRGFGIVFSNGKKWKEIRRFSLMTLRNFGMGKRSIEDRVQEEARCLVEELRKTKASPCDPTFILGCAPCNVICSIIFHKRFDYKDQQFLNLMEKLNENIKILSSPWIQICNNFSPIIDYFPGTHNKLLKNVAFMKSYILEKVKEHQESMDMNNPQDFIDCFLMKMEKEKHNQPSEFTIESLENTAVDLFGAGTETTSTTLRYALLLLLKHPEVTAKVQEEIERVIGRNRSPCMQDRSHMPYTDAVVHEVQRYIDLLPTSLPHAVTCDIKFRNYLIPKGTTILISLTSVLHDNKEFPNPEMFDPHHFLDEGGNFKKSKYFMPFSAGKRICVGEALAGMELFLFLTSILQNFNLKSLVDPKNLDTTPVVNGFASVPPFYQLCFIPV
# T1 sequence (P33261 whole entry): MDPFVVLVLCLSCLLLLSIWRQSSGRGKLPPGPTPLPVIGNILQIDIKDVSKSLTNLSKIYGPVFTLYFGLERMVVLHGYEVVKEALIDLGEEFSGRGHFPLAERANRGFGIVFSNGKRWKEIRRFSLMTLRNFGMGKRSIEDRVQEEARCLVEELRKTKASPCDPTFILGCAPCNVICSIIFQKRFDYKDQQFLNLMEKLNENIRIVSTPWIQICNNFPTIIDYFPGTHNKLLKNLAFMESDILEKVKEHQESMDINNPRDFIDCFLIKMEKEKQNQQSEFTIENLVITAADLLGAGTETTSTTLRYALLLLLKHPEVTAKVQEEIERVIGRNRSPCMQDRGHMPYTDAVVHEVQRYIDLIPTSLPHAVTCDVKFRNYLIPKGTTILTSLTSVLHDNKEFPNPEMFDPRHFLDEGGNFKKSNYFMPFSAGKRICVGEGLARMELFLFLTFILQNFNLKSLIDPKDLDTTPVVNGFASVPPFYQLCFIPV
Compound,Km [2],Drug metabolism [3],Vmax [4],Drug metabolism [5],Drug metabolism [6],Drug metabolism [7],Vmax [8],Drug metabolism [9],Drug metabolism [10],Km [11],Km [12],Vmax [13],Km [14],Drug metabolism [15],further results
Oc1ccc([C@H]2OC[C@H]3[C@@H]2CO[C@H]3c2ccc3c(c2)OCO3)cc1O,2.9 µM,9.4 nmol/min,0.55 nmol/min/mg,0.19 nmol/min,metabolite_detected,metabolite_detected,4.4 nmol/min/mg,0.38 nmol/min,metabolite_detected,16.8 µM,4.1 µM,0.28 nmol/min/mg,9.9 µM,metabolite_detected,Vmax [1]: 1.9 nmol/min/mg
Oc1ccc([C@@H]2OC[C@H]3[C@@H]2CO[C@@H]3c2ccc3c(c2)OCO3)cc1O,8.7 µM,9.4 nmol/min,0.68 nmol/min/mg,0.19 nmol/min,metabolite_detected,metabolite_detected,0.55 nmol/min/mg,0.38 nmol/min,metabolite_detected,9.9 µM,1.8 µM,0.15 nmol/min/mg,8.6 µM,metabolite_detected,Drug metabolism [16]: metabolite_detected; Drug metabolism [17]: metabolite_detected
Oc1ccc([C@H]2OC[C@H]3[C@@H]2CO[C@H]3c2ccc(O)c(O)c2)cc1O,–,–,–,–,–,–,–,–,metabolite_detected,–,–,–,–,–,Drug metabolism [18]: metabolite_detected; Drug metabolism [19]: metabolite_detected; Drug metabolism [20]: metabolite_detected; Drug metabolism [21]: metabolite_detected
Oc1ccc([C@H]2OC[C@H]3[C@@H]2CO[C@@H]3c2ccc(O)c(O)c2)cc1O,–,–,–,–,–,–,–,–,–,–,–,–,–,–,Drug metabolism [22]: metabolite_detected

# From ChEMBL document CHEMBL3525932, “Comparison of metabolism of sesamin and episesamin by drug-metabolizing enzymes in human liver” (Drug Metab Dispos, 2012)
